According to US9663429B2, “Vitamin D analogues of pharmaceutical interest” (UNIVERSIDADE DE SANTIAGO DE COMPOSTELA, priority 2013, dated 2017):

What was measured:
MCF-7 cells [1] = test: 3D cell culture on matrigel (spheroid size), MCF-7; type: cell-based, human
Description: FIG. 7. MCF-7 cells were shown for 10 days on a matrigel bed until they formed a 3D cellular structure. […] After treatment, the spheroids were stained with DAPI (4′,6-diamino-2-phenylindole) for 1 hour and photographed under an inverted microscope with ultraviolet light. The size of these spheroids was measured and the values were represented as mean±SD in relative units. […] Those cells treated with the carrier were considered as the control value.
For 3D cell culture, a cushion of 200 μl of Matrigel (BD Biosciences) was used in each of the wells of multi-well plates of 24 wells. They were incubated at 37° C. for 20 minutes for their solidification and subsequently the cell suspension (5×10^3 cells per 100 μl volume of medium) was loaded onto the matrigel solidified and another incubation at 37° C. was performed for 30 minutes so that the cells penetrated properly on the matrigel base. 500 μl of DMEM medium were added to each well, and the cells were maintained in culture for 10 days. At the end of this time, the cells were started to be treated with each of the 5 analogues used and 1,25D.

MDA-MB-231-Luc cells = test: In vivo anti-tumour activity, MDA-MB-231-Luc tumours in SCID mice
Excerpt: FIG. 13. In this figure the results obtained by treating a group of 32 mice with the analogue PG136 after being injected with MDA-MB-231-Luc cells are shown.
FIG. 14. The survival rate of mice treated with the analogue PG136 after being injected with MDA-MB-231-Luc cells is shown and compared with control mice.
In order to study the anti-tumour activity of the analogue PG136 in vivo, 32 immunosuppressed CB17-Prkdc^scid 8 weeks old female mice were used, called SCID (PRBB, Barcelona, Spain). These mice were injected subcutaneously with 5×10^6 breast tumour cells MCF-7 and MDA-MB-231 stably transfected with plasmid pcDNA3-Luciferase coding for the gene of the luciferase (called MCF-7-Luc and MDA-MB-231-Luc). Two groups of 8 mice were injected with cells MCF-7-Luc and other 2 groups of 8 mice with MDA-MB-231-Luc cells. Fifteen days after injection, the mice were started to be treated intraperitoneally every 2 days for 28 days with the analogue PG136 at a dose of 5 μ/kg dissolved in sesame oil used as carrier. The control group is treated in the same way and with the same range with sesame oil. Tumour size is determined every seven days once started the treatment using an in vivo imaging system (IVIS, Caliper Life Sciences, Alameda, USA), and the tumour size is calculated using a map of intensities retrieved using the Living Image (Caliper Life Sciences) software. […]

HaCaT cells = test: MTT proliferation assay, HaCaT; conditions: 10^−7 M, 48 hours, 100% control cells
Description: Proliferation assay in the HaCaT cell line of human keratinocytes. […] The values were plotted in the graphs as mean±SD. As proliferation value, 100% was considered the normal growth of HaCaT cells treated with the carrier in the control.
(§2) The cells were cultured in 90-mm plates in essential culture medium DMEM, supplemented with 10% bovine foetal serum free of steroid hormones, 100 U/ml penicillin, 100 μg/ml streptomycin and 2 mM non-essential amino acids (L-glutamine) at 37° C. in a humid atmosphere O2/CO2 (95/5%).
(§3) The first is an indirect method for determining living cells, wherein the yellow water soluble MTT is reduced in mitochondria, thus generating a purple insoluble product (formazan). […] After this time, the culture medium was removed and 500 μl of dimethylsulfoxide (DMSO) was added to each well to solubilise the formazan incorporated by the cells.

vitamin D receptor (VDR) = target: T1, vitamin D receptor (VDR) (Homo sapiens, UniProt P11473); test: Competitive binding to vitamin D receptor (Polarscreen VDR competitor assay, fluorescence polarisation)
T1 construct: purchased Invitrogen
T1 sequence (P11473 1-427): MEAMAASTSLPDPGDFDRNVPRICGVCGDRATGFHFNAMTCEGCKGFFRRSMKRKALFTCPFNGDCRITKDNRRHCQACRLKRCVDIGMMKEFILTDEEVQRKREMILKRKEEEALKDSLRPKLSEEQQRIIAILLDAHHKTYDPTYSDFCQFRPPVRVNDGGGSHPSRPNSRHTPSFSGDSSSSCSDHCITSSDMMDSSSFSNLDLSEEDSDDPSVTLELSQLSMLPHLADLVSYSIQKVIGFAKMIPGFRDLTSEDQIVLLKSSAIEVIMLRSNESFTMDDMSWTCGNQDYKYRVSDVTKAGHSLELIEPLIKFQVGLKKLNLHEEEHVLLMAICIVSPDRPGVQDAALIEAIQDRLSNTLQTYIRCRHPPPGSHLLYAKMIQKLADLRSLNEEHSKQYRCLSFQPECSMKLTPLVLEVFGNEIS
Description: FIG. 1. […] The values represent the mean of at least two experiments.
Polarised fluorescence was determined in 384-well black plates for 200 ms/well using a Mithras LB 940 device (Berthold Technologies).

MCF-7-Luc cells = test: In vivo anti-tumour activity, MCF-7-Luc tumours in SCID mice; conditions: 5 μ/kg ip every 2 days for 28 days, p≦0.05
Description: FIG. 12. In this figure the results obtained by treating a group of 32 mice with the analogue PG136 after being injected with MCF-7-Luc cells are shown.
In order to study the anti-tumour activity of the analogue PG136 in vivo, 32 immunosuppressed CB17-Prkdc^scid 8 weeks old female mice were used, called SCID (PRBB, Barcelona, Spain). These mice were injected subcutaneously with 5×10^6 breast tumour cells MCF-7 and MDA-MB-231 stably transfected with plasmid pcDNA3-Luciferase coding for the gene of the luciferase (called MCF-7-Luc and MDA-MB-231-Luc). Two groups of 8 mice were injected with cells MCF-7-Luc and other 2 groups of 8 mice with MDA-MB-231-Luc cells. Fifteen days after injection, the mice were started to be treated intraperitoneally every 2 days for 28 days with the analogue PG136 at a dose of 5 μ/kg dissolved in sesame oil used as carrier. The control group is treated in the same way and with the same range with sesame oil. Tumour size is determined every seven days once started the treatment using an in vivo imaging system (IVIS, Caliper Life Sciences, Alameda, USA), and the tumour size is calculated using a map of intensities retrieved using the Living Image (Caliper Life Sciences) software. In the case of the 2 groups of mice injected with MDA-MB-231-Luc cells, the experiment continued until day 60 and Kaplan-Meier Survival estimates were made.

MCF-7 cells [2] = test: MTT proliferation assay, MCF-7; conditions: 10^−7 M, 48 hours, 100% control cells
Description: Proliferation assay in the MCF-7 cell line of human breast adenocarcinoma. […] The values were plotted in the graphs as mean±SD. As proliferation value, 100% was considered the normal growth of MCF-7 cells treated with the carrier in the control.
as §2
Cell proliferation/toxicity in breast cancer lines was assessed by both incorporation assays of 3-(4,5-dimethylthiazol-2-yl)-2,5-difeniltetrazolium (MTT) bromide and cell culture in three dimensions (3D).
as §3

[3] = Body weight of mice in the dose-response assay; type: in vivo; conditions: mice, 0.1, 0.5, 1 and 5 μg/kg ip every 2 days for 21 days
Description: FIG. 10. […] 1,25D (dose of 0.3 μg/kg) and analogues (doses of 0.1, 0.5, 1 and 5 μg/kg) were injected intraperitoneally every 2 days for 21 days. Animals were weighed every two days during treatment. The values were represented as mean±SD in […].
In this experiment, also the weight of the animals was quantified to determine whether there was any modification throughout the treatment.

[4] = Calcaemic effects in mice at 0.3 μg/kg; type: in vivo
Description: FIG. 8. […] 1,25D and the various analogues were injected intraperitoneally every 2 days for 21 days at a dose of 0.3 μg/Kg. After treatment the calcium levels in the serum were evaluated and the values were represented as mean±SD in […].
(§1) Calcium mobilization of analogues was determined in 28 male CD-1 mice (6-8 weeks old). 6 Groups of 4 mice each were established, which mice were intraperitoneally (ip) injected with 0.3 μg/kg weight of each analogue or 1,25D dissolved in sesame oil every two days for 3 weeks. A seventh group of 4 mice treated with the carrier (sesame oil) served as controls. Calcium levels in blood were determined by QuantiChomCalciumAssay Kit (BioAssaySystems, Hayward, Calif., USA). In addition, a dose-response assay was performed to assess the effect of administration of the analogues PG-403 and PG136p and hormone (1,25D) at different doses on calcium levels. This assay was performed in male mice (5 mice per group), and the doses used were: 0.1, 0.5, 1, and 5 μg/kg weight of each analogue or 1,25D, i.p. administered every two days for 21 days. In addition, a control group (mice treated with sesame oil) was used.

[5] = Dose-response assay of serum calcium in mice; type: in vivo; conditions: for Serum calcium versus controls, analogues: doses 0.1, 0.5, 1 and 5 μg/kg ip every 2 days for 21 days
Description: FIG. 9. […] 1,25D (dose of 0.3 μg/kg) and analogues (doses of 0.1, 0.5, 1 and 5 μg/kg) were injected intraperitoneally every 2 days for 21 days. After treatment the calcium levels in the serum were evaluated and the values were represented as mean±SD in […].
as §1

PC-3 cells = test: MTT proliferation assay, PC-3; conditions: 10^−7 M, 48 hours, 100% control cells
Description: Proliferation assay in the PC-3 cell line of human prostate adenocarcinoma. […] The values were plotted in the graphs as mean±SD. As proliferation value, 100% was considered the normal growth of PC-3 cells treated with the carrier in the control.
as §2, §3

[6] = tested on: 24-hydroxylase promoter, CYP24A1 (pCYP24A1-Luc); test: Transactivation reporter assay (pCYP24A1-Luc) in MCF-7 cells
Description: MCF-7 cells were transfected with the reporter vector of 24-hydroxylase (pCYP24A1-Luc vector) for 24 hours. […] The experiments were performed at least twice. The error bars represent the standard deviation (SD).

SKOV-3 cells = test: MTT proliferation assay, SKOV-3; conditions: 10^−7 M, 48 hours, 100% control cells
Description: Proliferation assay in the SKOV-3 cell line of human ovary adenocarcinoma. […] The values were plotted in the graphs as mean±SD. As proliferation value, 100% was considered the normal growth of SKOV-3 cells treated with the carrier in the control.
as §2, §3

C=C1/C(=C\C=C(/CC)c2cccc(CCCCCC(C)(C)O)c2)C[C@@H](O)C[C@@H]1O [PG-136p, (1R,3S,Z)-5-((E)-3-(3-(6-hydroxy-6-methylheptyl)phenyl)pent-2-enyliden)-4-methylenecyclohexane-1,3-diol]
Three-dimensional growth of MCF-7 spheroids (in words) (MCF-7 cells [1]; 10^−7 M for 7 days): inhibit the three-dimensional growth, similarly to 1,25D
Cell proliferation percentage MCF-7 3D (MCF-7 cells [1]; 10^−7 M, matrigel spheroids, 100% control cells): 69%
Tumour volume versus control group (MDA-MB-231-Luc cells; 5 μ/kg ip every 2 days for 28 days, p≦0.0001): smaller volume
Survival rate versus control mice (Kaplan-Meier) (MDA-MB-231-Luc cells; until day 60, p=0.042): higher survival rate
Cell proliferation percentage HaCaT 2D (HaCaT cells): 68%
Binding to VDR % relative to 1,25D (100%) (vitamin D receptor (VDR); activity relative to natural hormone 1,25D normalised at 100%): 24%
IC50 (vitamin D receptor (VDR); competitive displacement, 10^−11 to 10^−5 M): 7.11 nM
Tumour volume versus control group (MCF-7-Luc cells): smaller volume
Cell proliferation percentage MCF-7 2D (MCF-7 cells [2]): 65%
Body weight versus control animals, analogues [3]: does not change the body weight
Body weight versus control animals, analogues ([3]; listed as PG136p): did not significantly affect the body weight
Hypercalcemia (serum calcium versus control) ([4]; 0.3 μg/Kg ip every 2 days for 21 days): does not produce hypercalcemia
Calcaemic activity: blood calcium in percentage over that induced by 1,25D ([4]; ip every two days for 21 days, 0.3 μg/kg (table title prints 0.3 mg/kg)): 0%
Serum calcium versus control animals (placebo) ([5]; 5 μg/kg weight ip every two days for 21 days): did not significantly raise serum calcium
Serum calcium versus controls, analogues [5]: does not produce hypercalcemia
Serum calcium versus controls, analogues ([5]; listed as PG136p): None of the two analogues tested (PG136p and PG-403) induces increased serum calcium
Cell proliferation percentage PC-3 2D (PC-3 cells): 78%
EC50 ([6]; Homo sapiens, MCF7, 24 h, read-out: Transcriptional activity EC50): 5.97 nM
Transcriptional activity % relative to 1,25D (100%) ([6]; MCF-7 cells, pCYP24A1-Luc): 33%
Cell proliferation percentage SKOV-3 2D (SKOV-3 cells): 78%
